In brackets after ≈: the same amount, converted by molar mass. Read-outs that look alike come from different tables or passages of the source.
Key:
Assay type in all cases: cell-based
[1] = tested on: E. Coli ATCC 25922; assay: Antimicrobial activity, MIC, modified microbroth dilution; conditions: Escherichia coli, read-out: MIC (expressed as MIC50) E. coli
Method: (§1) The compounds were screened for antimicrobial activity against a number of ATCC bacterial strains. Minimum Inhibitory Concentrations (MIC) of each of the compounds were determined using standard CLSI procedures modified by Hancock protocol against E. Coli ATCC 25922, Staphylococcus aureus ATCC 27660, Enterococcus faecalis ATCC 29212, Pseudomonas aeruginosa ATCC 10145, and Klebsiella pneumoniae ATCC 13883.
(§2) This procedure is a modification of the standard microbroth dilution assay recommended by the National Committee for Clinical Laboratory Standards (NCCLS) which has been developed for determining in vitro antimicrobial activities of cationic agents (Steinberg et al., Antimicrob. Agents Chemother., 1997, 41, 1738; and Yan et al., Antimicrob. Agents Chemother., 2001, 45, 1558). The modifications were made to minimize loss of the antimicrobial agent due to adsorption onto glass or plastic surfaces and by precipitation at high concentrations.
(§3) Three mL of Mueller-Hinton II Broth (cation-adjusted) was inoculated with 5 μL of frozen bacterial stock and incubated at 37° C. on a shaker platform (at 250 rpm) overnight. Compound stock solutions were prepared in DMSO and serial two-fold dilutions of compound were made in 0.01% acetic acid, 0.2% bovine serum albumin directly in the wells of the polypropylene plate at 10 μL/well. […] All samples were performed in duplicate. The overnight bacteria suspension was diluted to approximately 10^6 cfu/mL and inoculated into a polypropylene (Costar) 96-well round bottom plate (90 μL volumes). One set of control wells included broth-only samples with dilution buffer for testing sterility and providing blank values for the assay readings. Vehicle-control wells containing the bacterial suspension with DMSO (no compound) were also included. Following the overnight incubation (18 hours), cell growth was assessed by observing the presence of “acceptable growth”, defined by NCCLS as a ≧2 mm button or definite turbidity.
(§4) Actual results from a representative MIC assay are shown below in Table 1. Data is expressed as MIC50 in μg/mL. The bacterial isolates were as follows: E. coli (25922); S. aureus (27660); E. faecalis (29212); P. aeruginosa (10145); and K. pneumoniae (13883).

[2] = tested on: Enterococcus faecalis ATCC 29212; assay: as above; conditions: read-out: MIC (expressed as MIC50) E. faecalis
Method: as §1, §2, §3, §4

[3] = tested on: Klebsiella pneumoniae ATCC 13883; assay: as above; conditions: read-out: MIC (expressed as MIC50) K. Pnuemnoiae
Method: as §1, §2, §3, §4

[4] = tested on: Pseudomonas aeruginosa ATCC 10145; assay: as above; conditions: read-out: MIC (expressed as MIC50) P. Aeruginosa
Method: as §1, §2, §3, §4

[5] = tested on: Staphylococcus aureus ATCC 27660; assay: as above; conditions: read-out: MIC (expressed as MIC50) S. aureus
Method: as §1, §2, §3, §4

[6] = Cytotoxicity, colorimetric tetrazolium assay; conditions: one hour with compound in serum-free media
Method: Cytotoxicity of the compounds was evaluated in a colorimetric assay using a transformed human liver cell line (HepG2, HB-8065) and an embryonic mouse cell line (NIH/3T3 cells, CRL-1658). This assay measures the bioreduction of a novel tetrazolium compound to a soluble formazan product by viable cells. HepG2 cells were seeded in 96 well plates at 2×10^4 cells/well in MEM medium with 10% fetal bovine serum (FBS) for 24 hours prior to use. NIH/3T3 cells were seeded in 96 well plates at 2×10^4 cells/well in DMEM medium with 10% bovine calf serum (BCS) 24 hours prior to use. Cell monolayers were rinsed in serum-free media and incubated for one hour with the compound in serum-free media. After incubation, the media was replaced with serum supplemented media and live cells were measured using the Cell Titer 96 Aqueous […] (Promega, Madison, Wis.). EC50 values were determined using a four parameter logistic equation: Y=Bottom+(Top−Bottom)/(1+10̂((Log EC50−X)*HillSlope)). Actual results from a representative cytotoxicity assay are shown below in Table 2. Data is expressed as EC50 in μg/mL.

[7] = ATCC25922, E. coli (25922), 18 hours incubation
[8] = ATCC29212, E. faecalis (29212), 18 hours incubation
[9] = ATCC13883, K. pneumoniae (13883), 18 hours incubation
[10] = ATCC10145, P. aeruginosa (10145), 18 hours incubation
[11] = ATCC27660, S. aureus (27660), 18 hours incubation
[12] = mouse, NIH/3T3 cells (CRL-1658)

SMILES | MIC50 [1, 7] | MIC50 [2, 8] | MIC50 [3, 9] | MIC50 [4, 10] | MIC50 [5, 11] | EC50 at 1 h ([6]; human, HepG2 cells (HB-8065)) | EC50 at 1 h [6, 12] | MIC50 ([1]; ATCC25922, 18 h) | MIC50 ([2]; ATCC29212, 18 h) | MIC50 ([3]; ATCC13883, 18 h) | MIC50 ([4]; ATCC10145, 18 h) | MIC50 ([5]; ATCC27660, 18 h)
N=C(N)NCCCCC(=O)Nc1cc(C(F)(F)F)cc(NC(=O)Nc2ccc(Oc3cc([N+](=O)[O-])cc(C(F)(F)F)c3)cc2)c1SCCN [Compound 100, (4-(2-(2-aminoethylthio)-3-(3-(4-(3-(trifluoromethyl)-5-nitrophenoxy)phenyl)ureido)-5-(trifluoromethyl)phenylcarbamoyl)butyl)guanidine] | 50 µg/mL (≈ 69.8 µM) | 50 µg/mL (≈ 69.8 µM) | 50 µg/mL (≈ 69.8 µM) | 50 µg/mL (≈ 69.8 µM) | 25 µg/mL (≈ 34.9 µM) | 396 µg/mL (≈ 553 µM) | 56.2 µg/mL (≈ 78.4 µM) |  |  |  |  | 
N=C(N)NCCCCC(=O)Nc1cc(C(F)(F)F)cc(NC(=O)Nc2ccc(Oc3cc([N+](=O)[O-])cc(C(F)(F)F)c3)cc2)c1O[C@@H]1CCNC1 [Compound 101, [3-[4-[[3-(5-guanidinopentanoylamino)-2-[(3R)-pyrrolidin-3-yl]oxy-5-(trifluoromethyl)phenyl]carbamoylamino]phenoxy]-5-(trifluoromethyl)phenyl]azinic acid] |  |  |  |  |  | > 1000 µg/mL | > 1000 µg/mL | > 100 µg/mL | 100 µg/mL (≈ 138 µM) | 100 µg/mL (≈ 138 µM) | > 100 µg/mL | 50 µg/mL (≈ 68.8 µM)
N=C(N)NCCCCC(=O)Nc1cc(C(F)(F)F)cc(NC(=O)Nc2cccc(Oc3cc(NC(=N)N)cc(C(F)(F)F)c3)c2)c1SCCN [Compound 107, N-[2-(2-aminoethylsulfanyl)-3-[[3-[3-guanidino-5-(trifluoromethyl)phenoxy]phenyl]carbamoylamino]-5-(trifluoromethyl)phenyl]-5-guanidino-pentanamide] | 3.13 µg/mL (≈ 4.3 µM) | 12.5 µg/mL (≈ 17.2 µM) | 12.5 µg/mL (≈ 17.2 µM) | 6.25 µg/mL (≈ 8.58 µM) | 0.39 µg/mL (≈ 0.535 µM) |  |  |  |  |  |  | 
N=C(N)NCCCCC(=O)Nc1cc(C(F)(F)F)cc(NC(=O)Nc2cccc(Oc3cc(NC(=N)N)cc(C(F)(F)F)c3)c2)c1O[C@@H]1CCNC1 [Compound 116, 5-guanidino-N-[3-[[3-[3-guanidino-5-(trifluoromethyl)phenoxy]phenyl]carbamoylamino]-2-[(3R)-pyrrolidin-3-yl]oxy-5-(trifluoromethyl)phenyl]pentanamide] | 3.13 µg/mL (≈ 4.24 µM) | 12.5 µg/mL (≈ 16.9 µM) | 12.5 µg/mL (≈ 16.9 µM) | 6.25 µg/mL (≈ 8.46 µM) | 0.39 µg/mL (≈ 0.528 µM) |  |  |  |  |  |  | 
N=C(N)NCCCCC(=O)Nc1cc(C(F)(F)F)cc(NC(=O)Nc2cccc(Oc3cc(NCCCN)cc(C(F)(F)F)c3)c2)c1O[C@@H]1CCNC1 [Compound 118, N-[3-[[3-[3-(3-aminopropylamino)-5-(trifluoromethyl)phenoxy]phenyl]carbamoylamino]-2-[(3R)-pyrrolidin-3-yl]oxy-5-(trifluoromethyl)phenyl]-5-guanidino-pentanamide] | 3.13 µg/mL (≈ 4.15 µM) | 3.13 µg/mL (≈ 4.15 µM) | 3.13 µg/mL (≈ 4.15 µM) | 6.25 µg/mL (≈ 8.29 µM) | 0.195 µg/mL (≈ 0.259 µM) |  |  |  |  |  |  | 

Further lines, with some results ahead:

MIC50 [1, 7] | MIC50 [2, 8] | MIC50 [3, 9] | MIC50 [4, 10] | MIC50 [5, 11] | SMILES | EC50 at 1 h ([6]; human, HepG2 cells (HB-8065)) | EC50 at 1 h [6, 12] | MIC50 ([1]; ATCC25922, 18 h) | MIC50 ([2]; ATCC29212, 18 h) | MIC50 ([3]; ATCC13883, 18 h) | MIC50 ([4]; ATCC10145, 18 h) | MIC50 ([5]; ATCC27660, 18 h)
3.13 µg/mL (≈ 4.56 µM) | 6.25 µg/mL (≈ 9.1 µM) | 6.25 µg/mL (≈ 9.1 µM) | 12.5 µg/mL (≈ 18.2 µM) | 0.78 µg/mL (≈ 1.14 µM) | N=C(N)NCCCCC(=O)Nc1cc(C(F)(F)F)cc(NC(=O)Nc2ccc(Oc3cc(N)cc(C(F)(F)F)c3)cc2)c1SCCN [Compound 102, (4-(2-(2-aminoethylthio)-3-(3-(4-(3-amino-5-(trifluoromethyl)phenoxy)phenyl)ureido)-5-(trifluoromethyl)phenylcarbamoyl)butyl) guanidine] | 68 µg/mL (≈ 99 µM) | 36.7 µg/mL (≈ 53.4 µM) |  |  |  |  | 
3.13 µg/mL (≈ 4.49 µM) | 12.5 µg/mL (≈ 17.9 µM) | 12.5 µg/mL (≈ 17.9 µM) | 12.5 µg/mL (≈ 17.9 µM) | 0.78 µg/mL (≈ 1.12 µM) | N=C(N)NCCCCC(=O)Nc1cc(C(F)(F)F)cc(NC(=O)Nc2ccc(Oc3cc(N)cc(C(F)(F)F)c3)cc2)c1O[C@@H]1CCNC1 [Compound 103, (4-(2-((R)-pyrrolidin-3-yloxy)-3-(3-(4-(3-amino-5-(trifluoromethyl)phenoxy)phenyl)ureido)-5-(trifluoromethyl)phenylcarbamoyl)butyl)guanidine] |  |  |  |  |  |  | 
3.13 µg/mL (≈ 4.23 µM) | 3.13 µg/mL (≈ 4.23 µM) | 3.13 µg/mL (≈ 4.23 µM) | 6.25 µg/mL (≈ 8.45 µM) | 0.049 µg/mL (≈ 0.0662 µM) | N=C(N)NCCCCC(=O)Nc1cc(C(F)(F)F)cc(NC(=O)Nc2ccc(Oc3cc(NCCN)cc(C(F)(F)F)c3)cc2)c1O[C@@H]1CCNC1 [Compound 104] | 148 µg/mL (≈ 200 µM) | 82.7 µg/mL (≈ 112 µM) |  |  |  |  | 
1.56 µg/mL (≈ 2.1 µM) | 0.78 µg/mL (≈ 1.05 µM) | 1.56 µg/mL (≈ 2.1 µM) | 3.13 µg/mL (≈ 4.21 µM) | 0.195 µg/mL (≈ 0.262 µM) | N=C(N)NCCCCC(=O)Nc1cc(C(F)(F)F)cc(NC(=O)Nc2ccc(Oc3cc(NCCCN)cc(C(F)(F)F)c3)cc2)c1SCCN [Compound 105, (4-(2-(2-aminoethylthio)-3-(3-(4-(3-(3-aminopropylamino)-5-(trifluoromethyl)phenoxy)phenyl)ureido)-5-(trifluoromethyl)phenylcarbamoyl)butyl)guanidine] | 40 µg/mL (≈ 53.8 µM) | 49.4 µg/mL (≈ 66.4 µM) |  |  |  |  | 
0.78 µg/mL (≈ 1.07 µM) | 1.56 µg/mL (≈ 2.14 µM) | 1.56 µg/mL (≈ 2.14 µM) | 3.13 µg/mL (≈ 4.29 µM) | 0.195 µg/mL (≈ 0.267 µM) | N=C(N)NCCCCC(=O)Nc1cc(C(F)(F)F)cc(NC(=O)Nc2ccc(Oc3cc(NCCN)cc(C(F)(F)F)c3)cc2)c1SCCN [Compound 106, (4-(2-(2-aminoethylthio)-3-(3-(4-(3-(2-aminoethylamino)-5-(trifluoromethyl)phenoxy)phenyl)ureido)-5-(trifluoromethyl)phenylcarbamoyl)butyl) guanidine] | 61.8 µg/mL (≈ 84.7 µM) | 52.6 µg/mL (≈ 72.1 µM) |  |  |  |  | 
1.56 µg/mL (≈ 2.1 µM) | 3.13 µg/mL (≈ 4.21 µM) | 3.13 µg/mL (≈ 4.21 µM) | 6.25 µg/mL (≈ 8.4 µM) | 0.39 µg/mL (≈ 0.524 µM) | N=C(N)NCCCCC(=O)Nc1cc(C(F)(F)F)cc(NC(=O)Nc2cccc(Oc3cc(NCCCN)cc(C(F)(F)F)c3)c2)c1SCCN [Compound 117] |  |  |  |  |  |  | 

Source: patent US20140171438A1, “Hybrid Compounds And Methods Of Making And Using The Same” (CELLCEUTIX CORPORATION, priority 2012, published 2014)
